Source: US20140112882A1, “Methods to treat pancreatic inflammation and associated lung injury through regulation of pancreatic interleukin-22 expression” (The Board of Trustees of the Leland Stanford Junior …, priority 2012, published 2014)

What was measured:
[1] = test system: CDE-induced acute pancreatitis; assay: CDE-diet-induced acute pancreatitis model; format: in vivo, Balb/c mice
Method: (§1) Mice including Balb/c, C57B6/J and AhR^d were purchased from Jackson laboratory and housed under pathogen-free conditions. All animal experiments were approved by Stanford University institutional animal care and use committees. Acute pancreatitis models. For caerulein-induced pancreatitis, age and sex matched mice were fasted for 12-16 hours. Mice then received 7 hourly intra-peritoneal injections of saline (control) or 50 μg/kg caerulein in saline and followed up to 12 h or indicated times. For the choline-deficient diet supplemented with DL-ethionine (CDE-diet) model of pancreatitis, young female mice (16-20 g) were fasted then fed a choline-deficient diet (Harlan Teklad) supplemented with 0.5% DL-ethionine (Sigma-Aldrich) or normal chow (control group) (Habtezion et al. (2011), Nakamichi et al., 2005).
(§2) Mice were given PBS or recombinant IL-22 (200 ng/mouse, 1 ng/μl, Miltenyi Biotech) intra-peritoneally at 24 h after onset of CDE-diet-induced acute pancreatitis. For experiments involving anti-IL-22 mAb, mice were treated with 1 μg of either anti-IL-22 or isotype control mAb (R&D Systems) at indicated times. CH-223191 (100 μg/mouse, 0.5 μg/μl, Sigma-Aldrich) was dissolved in DMSO and Biliverdin hydrochloride (35 mg/kg, Frontier Scientific) in 20 mM NaOH adjusted to pH of 7.0. CH-223191, Biliverdin hydrochloride, or vehicle control were used to treat normal mice or mice undergoing AP at indicated times.
Mice were euthanized by CO2 inhalation. Pancreata and other tissues were rapidly removed. Pancreas and lung pieces were immediately fixed in 10% formalin and embedded in paraffin. Fixed tissues were sectioned and stained with hematoxylin and eosin (H&E; performed by Histo-Tec Laboratory). The severity of pancreatitis and lung injury were scored blindly as described previously (Habtezion et al. (2011), Nakamichi et al., 2005). Other pancreas pieces were frozen in Tissue-Tek OCT compound and sectioned for fluorescence staining Immunofluorescence staining for p-STAT3 (Cell Signaling) and DAPI (nuclei) was performed according to manufacturer's guidelines. TUNEL assay was performed according to the manufacturer's instructions (ApopTag® Red In Situ Apoptosis Detection Kit, Millipore).
Blood was collected by intracardiac puncture, and serum was isolated for subsequent lipase level determination by diagnostic laboratory at Stanford University. Lung tissues were collected and MPO assay performed according to manufacture's guidelines (Biovision).
(§3) Mouse pancreata were isolated and frozen immediately in liquid nitrogen. Total tissue and primary pancreatic acinar cells, isolated as described below, were homogenized in RIPA buffer containing protein inhibitors and analyzed by western blot as described previously (Nakamichi et al., 2005; Xue et al., 2010). IL-22RA1 and cleaved caspase-3 antibodies were purchased from Abcam and Cell Signaling, respectively. Supernatant from pancreas homogenate was analyzed using ELISA kit for mouse IL-22 (Biolegend).

[2] = test system: pancreatic IL-22; assay: Pancreatic IL-22 production in mice (flow cytometry of pancreatic leukocytes, ELISA); format: in vivo, Balb/c mice; settings: day 3, vs vehicle
Method: as §2
as §3, with “IL-22RA1 and cleaved caspase-3 antibodies were purchased from Abcam and Cell Signaling, respectively.” left out, “(Biolegend). […]” for “(Biolegend).”
For surface staining, cells were stained with the following antibodies (Biolegend): AF700 or FITC CD45.2, PE/Cy7-CD3, PE/Cy7-CD19, APC/Cy7-CD4, FITC-CD90, Percp/Cy5.5-CD11b, APC-Sca-1, PB-CD11c, APC/Cy7-NK1.1 and APC-NKp46. […] Flow cytometry data collection was performed on Fortessa LSRII (BD Biosciences) and analyzed using FlowJo software (Tree Star, Inc.).

[3] = test system: pancreatic acinar cells; assay: pSTAT3 induction in isolated primary pancreatic acinar cells (western blot); format: cell-based, Balb/c mice; settings: 10 ng/ml for 0-30 min; 0-100 ng/ml for 15 min
Method: as §3
(§4) Mice were sacrificed and pancreata removed carefully by trimming fat and mesentery. Dispersed pancreatic acinar cells were isolated using a collagenase digestion method described previously (Menozzi et al. 1990). Isolated primary pancreatic acinar cells were treated in vitro with either rIL-22 or vehicle control (PBS) for up to 4 hours following isolation. Pancreatic leukocytes were prepared with minor modifications of the method developed by Hawkins (Hawkins et al., 1996). Briefly, 3-4 pancreata were pooled together and minced with scissors, then washed twice with buffer A (HBSS+10% FCS). The tissue was resuspended in buffer A containing 2 mg/ml collagenase type IV (Sigma-Aldrich) and incubated in a shaker at 37° C. for 15 min. […]

[4] = test system: STAT3; assay: STAT3 phosphorylation in tissues after systemic rIL-22 (western blot, immunofluorescence); format: in vivo, Balb/c mice; settings: rIL-22 200 ng/mouse systemically; 1 h; compared to other tissues
Method: as §2
(§5) Mice were euthanized by CO2 inhalation. Pancreata and other tissues were rapidly removed. […] The severity of pancreatitis and lung injury were scored blindly as described previously (Habtezion et al. (2011), Nakamichi et al., 2005). Other pancreas pieces were frozen in Tissue-Tek OCT compound and sectioned for fluorescence staining Immunofluorescence staining for p-STAT3 (Cell Signaling) and DAPI (nuclei) was performed according to manufacturer's guidelines. […]
Mouse pancreata were isolated and frozen immediately in liquid nitrogen. Total tissue and primary pancreatic acinar cells, isolated as described below, were homogenized in RIPA buffer containing protein inhibitors and analyzed by western blot as described previously (Nakamichi et al., 2005; Xue et al., 2010). […]

[5] = test system: caerulein-induced acute pancreatitis; assay: Caerulein-induced acute pancreatitis in AhR non-responsive (AhR^d) mice; format: in vivo, AhR^d mice (C57BL/6 background); settings: rIL-22 single dose 200 ng/mouse, vs vehicle control
Method: as §1
as §5, with “removed. Pancreas and lung pieces were immediately fixed in 10% formalin and embedded in paraffin.” for “removed.”

[6] = test system: RegIII genes, SAA3, β-defensin2, IL-22RA1 in pancreas; assay: Quantitative PCR of pancreas mRNA 24 h after rIL-22; format: in vivo, Balb/c mice; settings: 200 ng/mouse i.p., vs PBS
Method: Pancreatic tissue was lysed with Trizol reagent (Invitrogen) for total RNA preparation according to manufacturer's instructions. Briefly, cDNA was generated using GoScript reverse transcription system (Promega). Quantitative PCR was performed with an ABI-7900 Sequence Detection System (Applied Biosystems) using designed specific TaqMan probes and primers as follows: RegIIIβ (Forward, 5′-[…]-3′; Reverse, 5′-[…]-3′; Probe, 5′-[…]-3′); RegIIIγ (Forward, 5′-[…]-3′; Reverse, 5′-TGGGTTCATAGCCCAGTGT-3′; Probe, 5′-[…]-3′); β-defensin2 (Forward, 5′-[…]-3′; Reverse, 5′-[…]-3′; Probe, 5′-[…]-3′); SAA3 (Forward, 5′-[…]-3′; Reverse, 5′-[…]-3′; Probe, 5′-[…]-3′); IL-22RA1 (Forward, 5′-[…]-3′; Reverse, 5′-[…]-3′; Probe, 5′-[…]-3′).

[7] = test system: primary pancreatic acinar cells; assay: Spontaneous apoptosis of primary pancreatic acinar cells in vitro (cleaved caspase-3 western blot); format: cell-based, mice; settings: rIL-22 for 2 h or 4 h in vitro; vs PBS
Method: as §3, §4

[8] = 200 ng/mouse 24 h after CDE feeding, 60 h, vs PBS

## Cc1ccccc1N=Nc1ccc(NC(=O)c2ccnn2C)c(C)c1 [CH-223191, 2-methyl-2H-pyrazole-3-carboxylic acid (2-methyl-4-o tolylazo-phenyl)-amide, reference compound]
[1]; pretreated before CDE feeding, by day 3, relative to control treated mice
  Mortality: increased mortality
[1]; pretreated daily for two days before CDE feeding, analyzed at day 2, vs vehicle
  Severity of acute pancreatitis (serum lipase, H&E, histologic score): considerably more severe acute pancreatitis
[2]; 100 μg/mouse on two consecutive days, flow cytometry and ELISA
  Frequency of IL-22-expressing leukocytes in the pancreas: markedly decreased

## C=CC1=C(C)/C(=C/C2=NC(=C\c3[nH]c(/C=C4\NC(=O)C(C)=C4C=C)c(C)c3CCC(=O)O)/C(CCC(=O)O)=C2C)NC1=O [biliverdin, reference compound]
[1]; single dose 24 h after CDE-diet feeding, sacrificed at 60 h, vs vehicle
  Protection against acute pancreatitis (serum lipase, histologic assessment): protected against acute pancreatitis
[2]; biliverdin 35 mg/kg on day 1 and 2, ELISA and flow cytometry
  Pancreatic IL-22: significant increase

## rIL-22: recombinant IL-22 (Miltenyi Biotech), cytokine of the IL-10 family
[3]
  pSTAT3 induction in pancreatic acinar cells: induced by rIL-22 in pancreatic acinar cells in a time and dose dependent manner
[4]
  STAT3 activation (p-STAT3) in the pancreas: Significant STAT3 activation
[5]
  Pancreatic injury (H&E): decrease
  Serum lipase levels: decrease
[6]
  IL-22RA1 mRNA expression in pancreas: no significant induction
  RegIIIβ (PAP1) mRNA expression in pancreas: stimulated the expression
  RegIIIγ (PAP3) mRNA expression in pancreas: stimulated the expression
  SAA3 mRNA expression in pancreas: no significant induction
  β-defensin2 mRNA expression in pancreas: no significant induction
[7]
  Spontaneous apoptosis of acinar cells (cleaved caspase-3): delayed spontaneous apoptosis
[1]; 200 ng/mouse 24 h after CDE feeding, 60 h, mean±SEM, P=0.028 vs control
  Blinded lung histology score: 1.6±0.24
[1]; [8]
  Lung myeloperoxidase (MPO) levels: significantly reduced
  Morphologic evidence of lung injury: significantly reduced
[1]; 200 ng/mouse 24 h after CDE feeding, 60 h, vs vehicle
  Pancreatitis severity, histologic examination and blinded scoring of pancreata: less severe pancreatitis
[1]; 200 ng/mouse i.p. 24 h after CDE feeding, harvest at 60 h, vs PBS
  Serum lipase levels: significantly lower
[1]; 60 h following CDE feeding
  Pancreatic IL-22 level by ELISA after systemic administration: Effective reconstitution
[1]; rIL-22 24 h after CDE feeding, followed to 72 h, vs PBS
  Mortality: lower mortality
[1]; rIL-22 24 h after CDE feeding, pancreas at 60 h
  Apoptosis in pancreas (TUNEL assay): significantly reduced apoptosis
